Data from patent US20210330611A1, “THERAPY FOR NEUROLOGICAL DISEASES/DISORDERS” (priority 2020, published 2021).
Counter-ions that a name gives are not always drawn. Like-named read-outs stand apart in the source and are kept apart here.

Assays:
[1] = tested on: fibrin-induced microglia activation; assay: Image-based assay of fibrin-induced microglia activation (HTS and dose response); type: cell-based, rat; details: for IC50 / inhibition at 10 µM: Rattus norvegicus, Microglia; for inhibition at 10 µM: primary microglia HTS, fibrin stimulation, increased cell size (>800 μm^2) as marker of activation, read-out: Fibrin % inhibition
[2] = tested on: LPS-induced microglia activation; assay: Image-based assay of LPS-induced microglia activation (HTS and dose response); type: cell-based, rat; details: Rattus norvegicus, Microglia; for inhibition at 10 µM: primary microglia HTS, LPS stimulation, increased cell size (>800 μm^2) as marker of activation, read-out: LPS % inhibition
[3] = tested on: fibrin- and LPS-induced microglia activation; assay: cells; type: cell-based, rat; details: for inhibition at 10 µM: Rattus norvegicus, Microglia
primary rat microglia [4] = details: rat
primary rat microglia [5] = details: rat; remark: listed apart in the source
in vitro [6] = details: rat, Cell Toxicity IC50 (uM) [cFib assay]
in vitro [7] = details: rat
primary rat microglia [8] = assay: Cell toxicity (dead cells, size <150 μm2) in LPS assay; details: read-out: Cell Toxicity IC50 (uM) [LPS assay]; LPS assay
[9] = 48 h, Table 1, dose response 0.001-20 μM, triplicates, primary rat microglia, 48 h, read-out: Fibrin IC50
[10] = Table 3, read-out: Fibrin IC50 (uM) (Suppl. Table 7)
[11] = dose response, fibrin-induced microglia activation, read-out: Fibrin IC50
[12] = fibrin-induced microglia activation, dose response, read-out: Fibrin IC50 (uM) (Suppl. Table 7)
[13] = 48 h, Table 1, dose response 0.001-20 μM, triplicates, primary rat microglia, 48 h, read-out: LPS IC50
[14] = LPS-induced microglia activation, dose response, read-out: LPS IC50 (uM) (Suppl. Table 7)
[15] = Table 3, read-out: LPS IC50 (uM) (Suppl. Table 7)
[16] = dose response, LPS-induced microglia activation, read-out: LPS IC50
[17] = HTS of 1907 compounds, quadrant by fibrin and LPS inhibition
[18] = Table 3, read-out: Cherry-picked Hit (Suppl. Table 7)
[19] = HTS hit classification, read-out: Hit
[20] = quadrant by fibrin and LPS inhibition in HTS of 1907 compounds
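Throughout, for Fibrin % cell toxicity: share of dead cells sized under 150 µm2 at 10 µM in fibrin-stimulated microglia HTS.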

SMILES | Fibrin Selectivity [1] | IC50 [1, 9] [µM] | IC50 [1, 10] [µM] | IC50 [1, 11] [µM] | IC50 [1, 12] [µM] | IC50 [2, 13] [µM] | inhibition at 10 µM ([2]; 48 h) [%] | IC50 [2, 14] [µM] | IC50 [2, 15] [µM] | IC50 [2, 16] [µM] | Quadrant (FIG. 5b) [3, 17] | inhibition at 10 µM [3, 18] [%] | inhibition at 10 µM [3, 19] [%] | Quadrant (FIG. 5b) ([3]; Table 1, screen at 10 μM) | Quadrant (FIG. 5b) ([3]; Table 3, screen at 10 μM) | Fibrin % cell toxicity (primary rat microglia [4]) [%] | IC50 (in vitro [6]; Table 3) [µM] | IC50 (in vitro [6]; cFib assay) [µM] | IC50 (in vitro [7]) [µM] | IC50 (primary rat microglia [8]) [µM] | further results
O=c1[nH]cc(F)c(=O)[nH]1 [Fluorouracil, reference compound] | 3 | 7 | 7 | 7 | 7 | > 20 | 40 | > 20 | > 20 | > 20 | Q3 | > 50 | > 50 | Q3 | Q3 | 1 | > 20 | > 20 | > 20 | > 20 | Fibrin Selectivity (LOG10) [1]: 0.44; inhibition at 10 µM [1]: 56%; Quadrant (FIG. 5b) [3, 20]: Q3; LPS % cell toxicity (primary rat microglia [5]): 1%
CC(=O)O[C@]1(C(C)=O)CC[C@H]2[C@@H]3C=C(C)C4=CC(=O)CC[C@]4(C)[C@H]3CC[C@@]21C [Megestrol acetate, reference compound] | 4 | 5 | 5 | 5 | 5 | > 20 | 24 | > 20 | > 20 | > 20 | Q3 | > 50 | > 50 | Q3 | Q3 | 1 | > 20 | > 20 | > 20 | > 20 | Fibrin Selectivity (LOG10) [1]: 0.63
C[C@H]1C[C@@H]2[C@H]([C@@H](O)C[C@@]3(C)[C@H]2CC[C@]3(O)C(=O)CO)[C@@]2(C)C=CC(=O)C=C12 [Methylprednisolone, reference compound] | – | < 0.001 | < 0.001 | < 0.001 | < 0.001 | 0.02 | 86 | 0.02 | 0.02 | 0.02 | Q2 | > 50 | > 50 | Q2 | Q2 | 3 | > 20 | > 20 | > 20 | > 20 | IC50 ([1]; Table 7, read-out: fib_IC50): 0.003 µM; inhibition at 10 µM [1]: 110%; IC50 ([2]; Table 7, read-out: LPS_IC50): 0.002 µM; Quadrant (FIG. 5b) ([3]; Table 2, screen at 10 μM): Q2; Quadrant (FIG. 5b) [3, 20]: Q2; LPS % cell toxicity (primary rat microglia [5]): 2%
O=C(NC(Cc1cc(=O)[nH]c2ccccc12)C(=O)O)c1ccc(Cl)cc1 (centres unmarked) [Rebamipide, reference compound] | 6 | 2 | 2 | 2 | 2 | 11 | 72 | 11 | 11 | 11 | Q2 | > 50 | > 50 | Q2 | Q2 | 1 | > 20 | > 20 | > 20 | > 20 | Fibrin Selectivity (LOG10) [1]: 0.80; inhibition at 10 µM [1]: 65%; Quadrant (FIG. 5b) [3, 20]: Q2; LPS % cell toxicity (primary rat microglia [5]): 2%
CC[C@]1(O)C[C@@H]2CN(CCc3c([nH]c4ccccc34)[C@@](C(=O)OC)(c3cc4c(cc3OC)N(C)[C@H]3[C@@](O)(C(=O)OC)[C@H](OC(C)=O)[C@]5(CC)C=CCN6CC[C@]43[C@@H]65)C2)C1 [Vinblastine sulfate, reference compound] | 11 | 0.02 | 0.02 | 0.02 | 0.02 | 0.2 | 108 | 0.2 | 0.2 | 0.2 | Q2 | > 50 | > 50 | Q2 | Q2 | 2 | > 20 | > 20 | > 20 | > 20 | Fibrin Selectivity (LOG10) [1]: 1.05; IC50 ([1]; Table 7, read-out: fib_IC50): 1.39 µM; inhibition at 10 µM [1]: 106%; IC50 ([2]; Table 7, read-out: LPS_IC50): 0.628 µM; Quadrant (FIG. 5b) ([3]; Table 2, screen at 10 μM): Q2; Activity ([3]; Table 7, fib = fibrin, LPS, tox = toxicity): fib/LPS; Quadrant (FIG. 5b) [3, 20]: Q2; LPS % cell toxicity (primary rat microglia [5]): 8%
O=P(O)(O)C(O)(Cn1ccnc1)P(=O)(O)O [Zoledronic acid, reference compound] | 4 | 2 | 2 | 2 | 2 | 8 | 49 | 8 | 8 | 8 | Q3 | > 50 | > 50 | Q3 | Q3 | 2 | > 20 | > 20 | > 20 | > 20 | Fibrin Selectivity (LOG10) [1]: 0.55; inhibition at 10 µM [1]: 83%; Quadrant (FIG. 5b) [3, 20]: Q3; LPS % cell toxicity (primary rat microglia [5]): 1%
